According to patent publication US9743676B2, “Pesticidal compositions comprising a solid insecticide and an essential oil” (AirRx Antimicrobial Sciences Inc., priority 2015, dated 2017):
Where two headings read alike, the source gives them in different places.

Key:
[1] = system: nonresistant strain of bed bug; conditions: for Residual Effect (% Knockdown & Mortality/hrs) 24: 24 hrs; for Residual Effect (% Knockdown & Mortality/hrs) 48: 48 hrs; for Residual Effect (% Knockdown & Mortality/hrs) 72: 72 hrs
Procedure: The compositions and individual components thereof were prepared to provide the appropriate rates of application for combinations of acetamiprid, chlorfenapyr, and rosemary oil, as well as acetamiprid, chlorfenapyr, and rosemary oil paired and alone. The insecticide formula(s) were aliquoted (100 μL) into a glass petri dish (100 mm). Filter paper was placed on top of the solution. Ten adult bed bugs were then placed on top of the filter paper and morbidity and moribundity (knockdown) and mortality was recorded at 5 minutes for each treatment combination and the control. After 2 hours, bed bugs were removed from the treated surface and placed in a holding chamber. Bed bug morbidity, moribund, and mortality was recorded every 24 hours for 7 days.
Dash indicates no knockdown or mortality during exposure.

[2] = system: adult bed bugs resistant strain (UMC) colony; assay: Contact lethal time of pyrethroids and rosemary oil on treated filter paper, Example 4; assay type: in vivo, bed bug; conditions: rate 0.01 % by weight
Procedure: The control is 100 μL […]. Filter paper was then placed on top of the solution.

Structure (SMILES)	2 hour exposure (min) LT50 ([1]; rate 0.01 % by weight) [min]	2 hour exposure (min) LT99 ([1]; rate 0.01 % by weight) [min]	Residual Effect (% Knockdown & Mortality/hrs) 24 ([1]; rate 0.01 % by weight) [%]	Residual Effect (% Knockdown & Mortality/hrs) 48 ([1]; rate 0.01 % by weight) [%]	Residual Effect (% Knockdown & Mortality/hrs) 72 ([1]; rate 0.01 % by weight) [%]	2 hour exposure (min) LT50 ([1]; rate 0.1 % by weight) [min]	2 hour exposure (min) LT99 ([1]; rate 0.1 % by weight) [min]	Residual Effect (% Knockdown & Mortality/hrs) 24 ([1]; rate 0.1 % by weight) [%]	Residual Effect (% Knockdown & Mortality/hrs) 48 ([1]; rate 0.1 % by weight) [%]	Residual Effect (% Knockdown & Mortality/hrs) 72 ([1]; rate 0.1 % by weight) [%]	2 hour exposure (min) LT50 ([1]; rate 1.0 % by weight) [min]	2 hour exposure (min) LT99 ([1]; rate 1.0 % by weight) [min]	Residual Effect (% Knockdown & Mortality/hrs) 24 ([1]; rate 1.0 % by weight) [%]	Residual Effect (% Knockdown & Mortality/hrs) 48 ([1]; rate 1.0 % by weight) [%]	Residual Effect (% Knockdown & Mortality/hrs) 72 ([1]; rate 1.0 % by weight) [%]	LT50 [2] [min]	LT95 [2] [min]
CC(=NC#N)N(C)Cc1ccc(Cl)nc1 [Acetamiprid, N-[(6-chloro-3-pyridyl)methyl]-N′-cyano-N-methyl-acetamidine]	39.3	38038.1	10.0	20.0	20.0	22.4	12565.9	20.0	10.0	10.0	7.0	510.8	40.0	30.0	50.0	–	–
CCOCn1c(-c2ccc(Cl)cc2)c(C#N)c(Br)c1C(F)(F)F [Chlorfenapyr, 4-Bromo-2-(4-chlorophenyl)-1-ethoxymethyl-5-trifluoromethyl-1H-pyrrole-3-carbonitrile]	–	–	0.0	0.0	0.0	–	–	30.0	50.0	70.0	–	–	40.0	80.0	100.0	–	–
CC1(C)C(C=C(Cl)Cl)C1C(=O)OCc1cccc(Oc2ccccc2)c1 (stereo not shown) [Permethrin, permethrin]	–	–	–	–	–	–	–	–	–	–	–	–	–	–	–	20.78	490.348
CC(C)=CC1C(C(=O)OCN2C(=O)C3=C(CCCC3)C2=O)C1(C)C (stereo not shown) [Tetramethrin, tetramethrin]	–	–	–	–	–	–	–	–	–	–	–	–	–	–	–	14000	6.5e+06
